Results published in US20120177690A1, “USE OF RAPAMYCIN DERIVATIVES IN VASCULOPATHIES AND XENOTRANSPLANTATION” (Novartis AG, priority 1996, published 2012).

Key:
aorta allograft = assay: Aorta transplantation in the rat (DA to Lewis); type: in vivo; conditions: per os in microemulsion, 2.5 mg/kg/day for 7 weeks and 0.63-5.0 mg/kg/day for 11 weeks
Procedure: These include infiltration into the adventitia of mononuclear cells (lymphocytes, macrophages, some plasma cells), and thickening of the intima.
Donor aorta between the branch of the renal artery and the start of the caudal mesenteric aorta, about 1 cm in length, is harvested from a male DA (RTI^a) rat and transplanted orthotopically in a male Lewis (RTI^1) rat. Weekly after transplantation, the body weight is recorded. At autopsy, the graft with part of the aorta of the recipient just above and below the transplant is removed. It is perfused ex vivo with phosphate-buffered saline supplemented with 2% paraformaldehyde and 2.5% glutaraldehyde for about 2 minutes, then for 24 hours fixed by immersion fixation in the same solution, and thereafter fixed in 4% buffered formalin. Pieces of the graft are embedded in paraffin, in such a way that both a transversal section and a longitudinal section is made of the grafted aorta and the recipient's own aorta.
Sections of 4 μm thickness are stained by hematoxylin-eosin, elastica-von-Gieson and periodic-acid-Schiff. Apart from conventional light microscopy, images are recorded by confocal laser scanning microscopy. From each section, four areas are scanned, and from each area the thickness of the intima and intima+media is measured at five locations. […]

kidney allograft = assay: Chronic allograft rejection, rat kidney allograft model (DA to Lewis); type: in vivo
Procedure: The kidney of a male DA (RTI^a) rat is orthotopically transplanted into a male Lewis (RTI^1) recipient. In total 24 animals are transplanted. All animals are treated with cyclosporine A at 7.5 mg/kg/day per as for 14 days starting on the day of transplantation, to prevent acute cellular rejection. Contralateral nephrectomy is not performed. Each experimental group treated with a distinct dose of a compound of formula I or placebo comprises six animals.
Starting at day 53-64 after transplantation, the recipient animals are treated per os for another 69-72 days with a compound of formula I or receive placebo. At 14 days after transplantation animals are subjected to graft assessment by magnetic resonance imaging (MRI) with perfusion measurement of the kidneys (with comparison of the grafted kidney and the own contralateral kidney). This is repeated at days 53-64 after transplantation and at the end of the experiment. The animals are then autopsied. Rejection parameters such as MRI score, relative perfusion rate of the grafted kidney and histologic score of the kidney allograft for cellular rejection and vessel changes are determined and statistically analyzed. Administration of a compound of formula I, e.g. Compound A, at a dose of 0.5 to 2.5 mg/kg in this rat kidney allograft model yields a reduction in all above mentioned rejection parameters.

[1] = 4-week toxicity study in monkeys; type: in vivo
Procedure: (§1) Compounds of formula I are well tolerated at dosages required for use in accordance with the present invention. For example, the NTEL for Compound A in a 4-week toxicity study is 0.5 mg/kg/day in rats and 1.5 mg/kg/day in monkeys.

hamster heart xenograft = assay: In vivo heart xenotransplantation (hamster-to-rat)
Excerpt: The hamster-into-rat xenograft combination is a so-called difficult concordant combination. […] This is visualized in histology by destruction of blood vessels, exsudation and extravasation of erythrocytes, and influx by polymorpho- nuclear granulocytes: often there are signs of hemorrhage and thrombosis. […] This is visualized in histology by influx of mononuclear cells, including lymphocytes, lymphoblastoid cells, and macrophages, and destruction of the myocyte parenchyma. The inhibition of cellular rejection requires more immuno-suppression than that of allografts. Congenitally athymic (mu/mu) rats lack a competent (thymus-dependent) cellular immune system and generally are unable to reject allografts.
The graft is monitored daily by palpation of the abdomen. Rejection is concluded in case of cessation of heart beat. Animals are weighed weekly. In the present series of experiments, the endpoint is set to 28 days. Animals are subjected to autopsy; apart from the graft, weight and histology is assessed for thymus, spleen, liver, seminal vesicles and testes. Blood is taken and processed to serum for the determination of cytolytic anti-hamster erythrocyte antibody and hemolytic complement activity.

[2] = 4-week toxicity study in rats; type: in vivo
Procedure: as §1

carotid artery = assay: Angioplasty, balloon catheter injury of the left common carotid artery; type: in vivo, RoRo rats; conditions: for inhibition of neointima formation: day -3 to day +14
Procedure: Studies on angioplasty are done in the model of balloon catheter injury: Balloon catheterization is performed on day 0, essentially as described by Powell et al. (1989). Under Isofluorane anaesthesia, a Fogarty 2 F catheter is introduced into the left common carotid artery via the external carotid and inflated (distension≈10 μl H2O). The inflated balloon is withdrawn along the length of the common carotid three times, the latter two times whilst twisting gently to obtain a uniform de-endothelialization. The cathethcr is then removed, a ligature placed around the external carotid to prevent bleeding and the animals allowed to recover.
2 groups of 12 RoRo rats (400 g. approximately 24 weeks old) are used for the study: one control group and one group receiving the compound of formula I. The rats are fully randomized during all handling, experimental procedures and analysis.
The compound to be tested is administered p.o. (gavage) starting 3 days before balloon injury (day −3) until the end of the study, 14 days after balloon injury (day +14). Rats are kept in individual cages and allowed food and water ad libidum.
The rats are then anaesthetized with Isofluorane, a perfusion catheter inserted through the left ventricle and secured in the aortic arch, and an aspiration cannula inserted into the right ventricle. […] The perfusion pressure is 150 mmHg at the tip of the cannula (≈100 mmHg in the carotid artery), as determined in a preliminary experiment by introducing a cannula attached to a pressure transducer into the external carotid). […]
Sections 1-2 μm thick are cut from the middle section of each carotid with a hard metal knife on a rotary microtome and stained for 2 min with Giemsa stain. About 5 sections from each carotid are thus prepared and the cross-sectional area of the media, neointima and the lumen morphometrically evaluated by means of an image analysis system (MCID, Toronto, Canada).

[3] = 2.5 mg/kg/day per os, vs placebo group

Structure (SMILES): CO[C@H]1C[C@@H]2CC[C@@H](C)[C@@](O)(O2)C(=O)C(=O)N2CCCC[C@H]2C(=O)O[C@H]([C@H](C)C[C@@H]2CC[C@@H](OCCO)[C@H](OC)C2)CC(=O)[C@H](C)/C=C(\C)[C@@H](O)[C@@H](OC)C(=O)[C@H](C)C[C@H](C)/C=C/C=C/C=C/1C [Compound A, 40-O-(2-hydroxy)ethyl-rapamycin]
- graft infiltration (aorta allograft): significantly inhibit
- neointima formation (aorta allograft): significantly inhibit
- MRI score of rejection (kidney allograft; [3]): significantly lower
- histologic score for cellular rejection and vessel changes (kidney allograft; [3]): significantly lower
- reduction in perfusion rate assessed by MRI (kidney allograft; [3]): significantly lower
- rejection parameters (MRI score, relative perfusion rate of the grafted kidney, histologic score for cellular rejection and vessel changes) (kidney allograft; dose of 0.5 to 2.5 mg/kg per os, from day 53-64 after transplantation for 69-72 days): reduction
- NTEL [1]: 1.5 mg/kg/day
- graft survival (hamster heart xenograft; athymic recipients): prolonged graft survival
- graft survival (hamster heart xenograft; euthymic recipients): prolonged graft survival
- NTEL [2]: 0.5 mg/kg/day
- inhibition of neointima formation (carotid artery; 0.5 mg/kg p.o. daily): 50%
- inhibition of neointima formation (carotid artery; 2.5 mg/kg p.o. daily): 75%
- intimal thickening (carotid artery; p.o. day -3 to day +14, compared to the control animals): significantly less
